The text below walks through data of patent publication US20200131132A1, “FARNESOID X RECEPTOR AGONISTS AND USES THEREOF” (Metacrine, Inc., priority 2017, published 2020).

SMILES strings stand for the structures.

Usually EC50 stands for the concentration giving half of the maximal effect.

The test addresses T1, hFXR (Homo sapiens, UniProt Q96RI1).
T1 construct: expressed in transfected cells; host or cells: CV-1 cells
T1 sequence (Q96RI1 1-486): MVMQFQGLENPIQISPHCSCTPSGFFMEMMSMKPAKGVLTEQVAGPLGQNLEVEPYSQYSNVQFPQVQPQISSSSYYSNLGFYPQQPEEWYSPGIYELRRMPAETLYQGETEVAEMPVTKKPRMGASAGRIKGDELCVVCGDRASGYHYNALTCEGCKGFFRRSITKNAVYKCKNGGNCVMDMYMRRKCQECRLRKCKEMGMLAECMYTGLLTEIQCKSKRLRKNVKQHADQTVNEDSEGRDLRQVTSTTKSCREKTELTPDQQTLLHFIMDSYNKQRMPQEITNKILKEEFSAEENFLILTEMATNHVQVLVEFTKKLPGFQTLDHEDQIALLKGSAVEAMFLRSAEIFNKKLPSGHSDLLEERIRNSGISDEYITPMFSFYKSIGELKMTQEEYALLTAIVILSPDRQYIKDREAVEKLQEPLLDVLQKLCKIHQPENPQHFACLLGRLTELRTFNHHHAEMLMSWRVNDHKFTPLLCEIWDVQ
T1 sequence (P19793 1-462 partner): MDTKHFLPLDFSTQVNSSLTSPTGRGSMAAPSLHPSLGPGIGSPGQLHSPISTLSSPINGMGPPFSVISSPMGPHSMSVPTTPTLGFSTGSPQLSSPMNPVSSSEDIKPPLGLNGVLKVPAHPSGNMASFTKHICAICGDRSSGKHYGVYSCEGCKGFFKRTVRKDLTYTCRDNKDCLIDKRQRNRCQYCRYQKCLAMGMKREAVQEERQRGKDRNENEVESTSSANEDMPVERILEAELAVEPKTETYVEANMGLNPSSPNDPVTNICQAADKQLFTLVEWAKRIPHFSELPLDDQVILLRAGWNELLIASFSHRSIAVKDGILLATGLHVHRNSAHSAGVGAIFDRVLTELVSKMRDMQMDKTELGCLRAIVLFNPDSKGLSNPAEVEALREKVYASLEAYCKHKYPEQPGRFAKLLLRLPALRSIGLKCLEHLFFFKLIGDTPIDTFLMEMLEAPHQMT
The test can be described thus: In Vitro FXR Assay (TK). The class given is cell-based. Conditions: CV-1 cells transfected with hFXR, hRXR, TK-ECRE-luc and pCMX-YFP; compounds incubated 18 hrs; luminescence. The gist of the method: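 Luciferase luminescence read-out from lysed CV-1 cells transiently co-expressing hFXR and hRXR with a TK-ECRE-luc reporter (pCMX-YFP co-transfected). Compound exposure lasted 18 h at 37 °C, 5% CO2, in medium containing charcoal super-stripped serum.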
Take `COc1ccc(-c2ccc(CN(C(=O)CC(C)(C)C)c3nccc4cc(COCC(=O)N(C)C)ccc34)cc2)cc1C` [Compound 19.02, N-(6-((2-(Dimethylamino)-2-oxoethoxy)methyl)isoquinolin-1-yl)-N-((4′-methoxy-3′-methyl-[1,1′-biphenyl]-4-yl)methyl)-3,3-dimethylbutanamide]: the EC50 fell in the range of 1000 to 10000 nM.

As for `COc1ccc(-c2ccc(CN(C(=O)CC(C)(C)C)c3nccc4ccccc34)cc2)cc1C` [Compound 20, N-(Isoquinolin-1-yl)-N-((4′-methoxy-3′-methyl-[1,1′-biphenyl]-4-yl)methyl)-3,3-dimethylbutanamide], the half-maximal effective concentration (EC50) is at most 1000 nM.

For `COC(=O)c1cc(-c2ccc(OC)c(C)c2)ccc1CN(C(=O)CC(C)(C)C)c1nccc2cc(OC)ccc12` [Compound 20.01, Methyl 4′-methoxy-4-((N-(6-methoxyisoquinolin-1-yl)-3,3-dimethylbutanamido)methyl)-3′-methyl-[1,1′-biphenyl]-3-carboxylate], the EC50 was over 10000 nM.

As for `COC(=O)c1cc(CN(C(=O)CC(C)(C)C)c2nccc3cc(OC)ccc23)ccc1-c1ccc(OC)c(C)c1` [Compound 20.02, Methyl 4′-methoxy-4-((N-(6-methoxyisoquinolin-1-yl)-3,3-dimethylbutanamido)methyl)-3′-methyl-[1,1′-biphenyl]-2-carboxylate], the half-maximal effective concentration (EC50) was at most 1000 nM.

Consider `COc1ccc2c(N(Cc3ccc(-c4ccc(OC)c(C)c4)cc3CO)C(=O)CC(C)(C)C)nccc2c1` [Compound 21, N-((3-(Hydroxymethyl)-4′-methoxy-3′-methyl-[1,1′-biphenyl]-4-yl)methyl)-N-(6-methoxyisoquinolin-1-yl)-3,3-dimethylbutanamide], for which the half-maximal effective concentration (EC50) lay in the range of 1000 to 10000 nM.

Take `COc1ccc2c(N(Cc3ccc(-c4ccc(OC)c(C)c4)c(CO)c3)C(=O)CC(C)(C)C)nccc2c1` [Compound 21.01, N-((2-(Hydroxymethyl)-4′-methoxy-3′-methyl-[1,1′-biphenyl]-4-yl)methyl)-N-(6-methoxyisoquinolin-1-yl)-3,3-dimethylbutanamide]: the EC50 is 1000 to 10000 nM.

As for `COc1ccc(-c2ccc(CN(C(=O)CC(C)(C)C)c3nccc4cc(/C=C\CO)ccc34)cc2)cc1C` [Compound 22, (Z)-N-(6-(3-Hydroxyprop-1-en-1-yl)isoquinolin-1-yl)-N-((4′-methoxy-3′-methyl-[1,1′-biphenyl]-4-yl)methyl)-3,3-dimethylbutanamide], the concentration giving a half-maximal response (EC50) was at most 1000 nM.

The molecule `COc1ccc(-c2ccc(CN(C(=O)CC(C)(C)C)c3nccc4cc(/C=C/CO)ccc34)cc2)cc1C` [Compound 23, (E)-N-(6-(3-Hydroxyprop-1-en-1-yl)isoquinolin-1-yl)-N-((4′-methoxy-3′-methyl-[1,1′-biphenyl]-4-yl)methyl)-3,3-dimethylbutanamide] displayed an EC50 of at most 1000 nM.

As to `COc1ccc(-c2ccc(CN(C(=O)CC(C)(C)C)c3nccc4cc(CCCO)ccc34)cc2)cc1C` [Compound 24, N-(6-(3-Hydroxypropyl)isoquinolin-1-yl)-N-((4′-methoxy-3′-methyl-[1,1′-biphenyl]-4-yl)methyl)-3,3-dimethylbutanamide], the EC50 was at most 1000 nM.

Molecule `COc1ccc(-c2ccc(CN(C(=O)CC(C)(C)C)c3nccc4cc(CCO)ccc34)cc2)cc1C` [Compound 25, N-(6-(2-Hydroxyethyl)isoquinolin-1-yl)-N-((4′-methoxy-3′-methyl-[1,1′-biphenyl]-4-yl)methyl)-3,3-dimethylbutanamide] had a concentration for a half-maximal effect (EC50) of at most 1000 nM.

In turn, `COc1ccc(-c2ccc(CN(C(=O)CC(C)(C)C)c3nccc4cc(C(C)O)ccc34)cc2)cc1C` (stereo not drawn) [Compound 26, N-(6-(1-Hydroxyethyl)isoquinolin-1-yl)-N-((4′-methoxy-3′-methyl-[1,1′-biphenyl]-4-yl)methyl)-3,3-dimethylbutanamide] showed an EC50 of at most 1000 nM.

Molecule `COc1ccc(-c2ccc(CN(C(=O)CC(C)(C)C)c3nccc4cc(CC#N)ccc34)cc2)cc1C` [Compound 27, N-(6-(Cyanomethyl)isoquinolin-1-yl)-N-((4′-methoxy-3′-methyl-[1,1′-biphenyl]-4-yl)methyl)-3,3-dimethylbutanamide] returned a concentration for a half-maximal effect (EC50) of at most 1000 nM.
